Columns and labels:
BT-549 [1] = assay: Antiproliferative activity against human BT549 cells at 1 nM to 100 uM after 24 hrs by MTT assay relative to control; assay type: functional; conditions: at 0.001 to 100 µM
BT-549 [2] = assay: Inhibition of cell migration in human BT549 cells at 100 uM after 24 hrs by inverted fluorescence microscopy based scratch assay relative to control; assay type: functional; conditions: BT-549, 24 h
MDA-MB-231 [3] = assay: Antiproliferative activity against human MDA-MB-231 cells after 24 hrs by MTT assay; assay type: functional, cell-based; conditions: MDA-MB-231, 24 h
MCF7 [4] = assay: Antiproliferative activity against human MCF7 cells at 1 nM to 100 uM after 24 hrs by MTT assay relative to control; assay type: functional; conditions: at 0.001 to 100 µM
[5] = Antiproliferative activity against mouse mammary carcinoma cell at 1 nM to 100 uM after 24 hrs by MTT assay relative to control; assay type: functional; conditions: at 0.001 to 100 µM
[6] = Inhibition of cell migration in mouse mammary carcinoma cell at 100 uM after 24 hrs by inverted fluorescence microscopy based scratch assay relative to control; assay type: functional
MDA-MB-231 [7] = assay: Antiproliferative activity against human MDA-MB-231 cells at 1 nM to 100 uM after 24 hrs by MTT assay relative to control; assay type: functional; conditions: at 0.001 to 100 µM
MDA-MB-231 [8] = assay: Inhibition of cell migration in human MDA-MB-231 cells at 100 uM after 24 hrs by inverted fluorescence microscopy based scratch assay relative to control; assay type: functional; conditions: MDA-MB-231, 24 h
[9] = target: T1, Melatonin receptor type 1A (Homo sapiens, UniProt P48039)
T1 sequence (P48039 whole entry): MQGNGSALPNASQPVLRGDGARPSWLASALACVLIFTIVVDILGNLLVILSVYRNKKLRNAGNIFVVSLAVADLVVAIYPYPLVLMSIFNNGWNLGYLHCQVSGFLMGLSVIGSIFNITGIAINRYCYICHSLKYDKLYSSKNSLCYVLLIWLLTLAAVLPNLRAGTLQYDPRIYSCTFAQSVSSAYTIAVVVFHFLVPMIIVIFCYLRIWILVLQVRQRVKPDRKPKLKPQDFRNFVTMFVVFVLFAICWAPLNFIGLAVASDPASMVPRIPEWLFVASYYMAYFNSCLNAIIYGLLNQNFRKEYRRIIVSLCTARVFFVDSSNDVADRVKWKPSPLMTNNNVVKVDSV

MCF7 [10] = assay: Inhibition of cell migration in human MCF7 cells at 100 uM after 24 hrs by inverted fluorescence microscopy based scratch assay relative to control; assay type: functional; conditions: MCF7, 24 h
[11] = Antiproliferative activity against mouse mammary carcinoma cell after 24 hrs by MTT assay; assay type: functional
BT-549 [12] = assay: Antiproliferative activity against human BT549 cells after 24 hrs by MTT assay; assay type: functional, cell-based; conditions: BT-549, 24 h
[13] = target: T1, Melatonin receptor type 1A; remark: listed apart in the source
MCF7 [14] = assay: Antiproliferative activity against human MCF7 cells after 24 hrs by MTT assay; assay type: functional, cell-based; conditions: MCF7, 24 h

| Compound | IC50 (MDA-MB-231 [3]) | KiH [9] | KiL [9] | IC50 (BT-549 [12]) | Ki [13] | IC50 (MCF7 [14]) | Efficacy (BT-549 [1]) | inhibition at 100 µM (BT-549 [2]) | Efficacy (MCF7 [4]) | Efficacy [5] | inhibition at 100 µM [6] | Efficacy (MDA-MB-231 [7]) | inhibition at 100 µM (MDA-MB-231 [8]) | inhibition at 100 µM (MCF7 [10]) | IC50 [11] |
| --- | --- | --- | --- | --- | --- | --- | --- | --- | --- | --- | --- | --- | --- | --- | --- |
| CC(C)=CCC/C(C)=C/CC/C(C)=C/COc1ccc2ccc(=O)oc2c1 [UMBELLIPRENIN] | 30 µM | 1.6 nM | 3.3 nM |  |  |  | 85% | 23% | 81% | 61% | 7% | 60% | -52% | 9% |  |
| CC(C)=CCOc1ccc2ccc(=O)oc2c1 [7-PRENYLOXYCOUMARIN] |  |  |  | 37 µM | 5.2 µM |  | 94% |  | 105% | 98% |  | 83% |  |  |  |
| COc1cc(/C=C/C(=O)O)ccc1OCC=C(C)C [BOROPINIC ACID] |  |  |  | 15 µM |  | 0.7 µM | 97% |  | 102% | 98% |  | 89% |  |  | 6.1 µM |
| O=c1ccc2ccc(O/C=C/c3ccccc3)cc2o1 | 6.6 µM |  |  | 140 µM | 0.37 µM | 2.2 µM | 86% |  | 87% | 93% |  | 82% |  |  |  |
| CCC#CCOc1ccc2ccc(=O)oc2c1 [7-(2-PENTYNYLOXY)COUMARIN] |  |  |  | 74 µM | 0.888 µM | 50 µM | 86% |  | 89% | 101% |  | 87% |  |  | 24 µM |
| CC(C)=CCC/C(C)=C/COc1ccc2ccc(=O)oc2c1 | 80 µM |  |  | 24 µM | 1.9 µM |  | 86% | 7% | 90% | 57% | 5% | 67% | -36% | 3% |  |
| COc1ccc2[nH]cc(CCNC(C)=O)c2c1 [MELATONIN] | 0.9 µM |  |  | 30000 µM |  |  | 91% |  | 87% | 91% |  | 92% |  |  | 0.2 µM |
| O=c1ccc2ccc(O)cc2o1 [UMBELLIFERONE] | 3.7 µM |  |  | 1000 µM |  | 2.9 µM | 91% |  | 124% | 93% |  | 88% |  |  |  |

Further lines, with some results ahead:

| IC50 (MDA-MB-231 [3]) | KiH [9] | KiL [9] | IC50 (BT-549 [12]) | Ki [13] | IC50 (MCF7 [14]) | Compound | Efficacy (BT-549 [1]) | inhibition at 100 µM (BT-549 [2]) | Efficacy (MCF7 [4]) | Efficacy [5] | inhibition at 100 µM [6] | Efficacy (MDA-MB-231 [7]) | inhibition at 100 µM (MDA-MB-231 [8]) | inhibition at 100 µM (MCF7 [10]) | IC50 [11] |
| --- | --- | --- | --- | --- | --- | --- | --- | --- | --- | --- | --- | --- | --- | --- | --- |
| 22 µM |  |  | 5.6 µM | 59 µM |  | COc1cc(/C=C/C(=O)O)ccc1OC/C=C(\C)CCC=C(C)C | 93% |  | 102% | 99% |  | 79% |  |  | 2.5 µM |
| 0.5 µM |  |  | 1.2 µM |  |  | COc1cc(/C=C/C(=O)O)ccc1O [FERULATE] | 99% |  | 96% | 100% |  | 92% |  |  |  |
| 63 µM |  |  | 0.045 µM | 0.786 µM |  | COc1cc(/C=C/C=O)ccc1OCC=C(C)C [BOROPINAL] | 83% |  | 94% | 96% |  | 79% |  |  | 0.22 µM |
